# Publication PMC8963105, “A Novel Modulator of the Renin–Angiotensin System, Benzoylaconitine, Attenuates Hypertension by Targeting ACE/ACE2 in Enhancing Vasodilation and Alleviating Vascular Inflammation” (Frontiers in Pharmacology, 2022)
# pKd: −log10 of the molar value.
# Experiments:
# p-Akt = p-Akt in aorta of SHRs (Western blot); type: in vivo, rat; details: vessel of SHRs, oral 14 days
# Source text: (§1) All three MDAs (BAC, BMC, and BHC) were purchased from Nature-Standard Co., Ltd. (Shanghai, China) and their purities were all over 98%. The anti-hypertensive effects of MDAs were studied in both acute and chronic experiments. The 16-week-old SHRs were used in animal experiments, and each group had six rats. In the acute experiment, drug administration was via i.v. injection. For i.v. injection, the animals were randomly assigned into four groups: vehicle (0.1% DMSO–0.9% salt solution, n = 6), low-dose group (0.6 mg kg^−1 body weight, n = 6), medium-dose group (2 mg kg^−1 body weight, n = 6), and high-dose group (6 mg kg^−1 body weight, n = 6). The drug was administered using a venous catheter. In chronic experiments, the animals were randomly assigned into five groups: vehicle (5% Tween 80–0.9% salt solution, n = 6), captopril group (5 mg kg^−1 body weight, n = 6), low-dose group (3 mg kg^−1 body weight, n = 6), medium-dose group (10 mg kg^−1 body weight, n = 6), and high-dose group (30 mg kg^−1 body weight, n = 6). Oral administration with drug or 5% Tween 80–0.9% salt solution was carried out once a day, and continued for 14 days. […] Blood pressure was recorded in real time.
# (§2) The cell samples and tissue sample were collected and placed in ice rapidly. […] Protein concentration in cell lysates was measured using a Bio-Rad DC Protein Assay Kit […]. […]
# ACE = test: serum ACE by ELISA in SHRs after 14-day oral administration; type: in vivo, rat; details: oral 14 days
# Source text: (§3) All three MDAs (BAC, BMC, and BHC) were purchased from Nature-Standard Co., Ltd. (Shanghai, China) and their purities were all over 98%. The anti-hypertensive effects of MDAs were studied in both acute and chronic experiments. The 16-week-old SHRs were used in animal experiments, and each group had six rats. In the acute experiment, drug administration was via i.v. injection. For i.v. injection, the animals were randomly assigned into four groups: vehicle (0.1% DMSO–0.9% salt solution, n = 6), low-dose group (0.6 mg kg^−1 body weight, n = 6), medium-dose group (2 mg kg^−1 body weight, n = 6), and high-dose group (6 mg kg^−1 body weight, n = 6). The drug was administered using a venous catheter. […] Blood pressure was recorded in real time.
# (§4) Blood samples were collected from the left femoral artery of rats at the end point, followed by centrifugation at 1,000 × g for 15 min at 4°C. […] The concentrations of circulating ACE, ACE2, Ang I, Ang II, Ang (1–7), TNF-α, and IL-6 in serum were measured using the ELISA kits [ACE, cat#xy-R2401c, X-Y Biotechnology, Shanghai, China; ACE2, cat#xy-ACE2-Ra, X-Y Biotechnology; Ang I, cat#xy-E12541, X-Y Biotechnology; Ang II, cat#xy-R1430c, X-Y Biotechnology; Ang (1–7), cat#xy-Ang1-7-Ra, X-Y Biotechnology; TNF-α, cat#GM1149, Servicebio, Shanghai, China; IL-6, cat#GM1154, Servicebio] according to the manufacturer’s instructions. […]
# mice = tested on: mice; set-up: method as in Wada et al., 2005; details: ref Wada et al., 2005; cited from earlier work
# ACE2 = test: serum ACE2 by ELISA in SHRs after 14-day oral administration; type: in vivo, rat; details: oral 14 days
# Source text: as §3, §4
# p-eNOS^Ser1177 = test: p-eNOS Ser1177 in aorta of SHRs (Western blot); type: in vivo, rat; details: vessel of SHRs, oral 14 days
# Source text: as §1, §2
# [1] = biological target: T1, recombinant human ACE (rhACE) (Homo sapiens, UniProt P12821); test: SPR assay with rhACE; type: binding; details: rhACE on chip, 5% DMSO–1.05× PBS
# T1 construct: purchased Proteintech
# Experimental: (§5) To screen the potential targets of the MDAs in hypertension, a CVDPlatform (www.cbligand.org/CVD) was used as previously reported ([Zhang et al., 2016a]). The results of database screening were verified by virtual docking with Discovery Studio 3.5 (BIOVIA, San Diego, CA, United States) and then validated in the SPR assay. In the SPR assay, a solution of protein standards was prepared, and the concentration of recombinant human ACE (rhACE) protein and rhACE2 (Proteintech, Rosemont, IL, United States) solution was set to 500 μg ml^−1. […] Finally, the level of binding between the proteins and each molecule was determined based on the K d value.
# Ang (1–7) = test: serum Ang (1–7) by ELISA in SHRs after 14-day oral administration; type: in vivo, rat; details: oral 14 days
# Source text: as §3, §4
# [2] = tested on: spontaneously hypertension rats (SHRs); test: acute experiment: real-time blood pressure after i.v. injection in SHRs; type: in vivo, rat
# Experimental: The SHRs were surgically implanted with a catheter via the left femoral artery, vein, and stomach after anesthetizing with 2% pentobarbital sodium (40 mg kg^−1 i.p.,). A pressure sensor was inserted into the terminal of the arterial catheter and connected to a PowerLab system (ADInstruments, New South Wales, Australia) for real-time blood pressure monitoring.
# All three MDAs (BAC, BMC, and BHC) were purchased from Nature-Standard Co., Ltd. (Shanghai, China) and their purities were all over 98%. The anti-hypertensive effects of MDAs were studied in both acute and chronic experiments. The 16-week-old SHRs were used in animal experiments, and each group had six rats. In the acute experiment, drug administration was via i.v. injection. For i.v. injection, the animals were randomly assigned into four groups: vehicle (0.1% DMSO–0.9% salt solution, n = 6), low-dose group (0.6 mg kg^−1 body weight, n = 6), medium-dose group (2 mg kg^−1 body weight, n = 6), and high-dose group (6 mg kg^−1 body weight, n = 6). The drug was administered using a venous catheter. In chronic experiments, the animals were randomly assigned into five groups: vehicle (5% Tween 80–0.9% salt solution, n = 6), captopril group (5 mg kg^−1 body weight, n = 6), low-dose group (3 mg kg^−1 body weight, n = 6), medium-dose group (10 mg kg^−1 body weight, n = 6), and high-dose group (30 mg kg^−1 body weight, n = 6). Oral administration with drug or 5% Tween 80–0.9% salt solution was carried out once a day, and continued for 14 days. The drugs were dissolved in 0.1% DMSO–0.9% salt solution for intravenous injection and in 5% Tween 80–0.9% salt solution for oral administration. Blood pressure was recorded in real time.
# Real-time blood pressure level was monitored after drug treatment in the acute and chronic experiments. All animals were surgically implanted with a catheter in the left femoral artery. After connection to the monitor, all animals were placed at room temperature of 25°C for 0.5–1 h and the average blood pressure value was calculated based on a real-time blood pressure curve (10 s of every 30 s).
# rhACE2 = biological target: T2, rhACE2 (Homo sapiens, UniProt Q9BYF1); test: SPR assay with rhACE2; type: binding; details: rhACE2 on chip, 5% DMSO–1.05× PBS
# T2 construct: purchased Proteintech
# Experimental: as §5
# T2 sequence (Q9BYF1 18-805): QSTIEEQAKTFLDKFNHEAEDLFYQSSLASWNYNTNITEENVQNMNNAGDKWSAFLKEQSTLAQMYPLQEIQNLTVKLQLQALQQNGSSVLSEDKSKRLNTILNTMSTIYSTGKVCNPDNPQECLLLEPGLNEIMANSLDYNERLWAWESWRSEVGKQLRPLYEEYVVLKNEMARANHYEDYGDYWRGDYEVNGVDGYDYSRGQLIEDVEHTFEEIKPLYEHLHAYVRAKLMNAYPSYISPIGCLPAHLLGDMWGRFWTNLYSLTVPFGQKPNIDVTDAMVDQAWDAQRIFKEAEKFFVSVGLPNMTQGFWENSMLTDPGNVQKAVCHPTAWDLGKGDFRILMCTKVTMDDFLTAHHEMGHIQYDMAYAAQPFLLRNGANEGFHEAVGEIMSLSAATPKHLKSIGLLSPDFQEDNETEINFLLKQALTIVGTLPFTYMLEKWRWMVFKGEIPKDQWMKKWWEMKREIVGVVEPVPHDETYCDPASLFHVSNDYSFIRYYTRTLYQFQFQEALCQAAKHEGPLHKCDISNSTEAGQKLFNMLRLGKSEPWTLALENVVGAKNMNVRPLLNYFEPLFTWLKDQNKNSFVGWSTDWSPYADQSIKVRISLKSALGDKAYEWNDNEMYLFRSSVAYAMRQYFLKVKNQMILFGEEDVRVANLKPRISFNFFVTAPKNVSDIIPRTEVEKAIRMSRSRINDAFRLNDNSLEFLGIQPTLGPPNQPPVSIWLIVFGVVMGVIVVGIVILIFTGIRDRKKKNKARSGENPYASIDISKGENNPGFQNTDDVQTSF
# T1 sequence (P12821 30-1306): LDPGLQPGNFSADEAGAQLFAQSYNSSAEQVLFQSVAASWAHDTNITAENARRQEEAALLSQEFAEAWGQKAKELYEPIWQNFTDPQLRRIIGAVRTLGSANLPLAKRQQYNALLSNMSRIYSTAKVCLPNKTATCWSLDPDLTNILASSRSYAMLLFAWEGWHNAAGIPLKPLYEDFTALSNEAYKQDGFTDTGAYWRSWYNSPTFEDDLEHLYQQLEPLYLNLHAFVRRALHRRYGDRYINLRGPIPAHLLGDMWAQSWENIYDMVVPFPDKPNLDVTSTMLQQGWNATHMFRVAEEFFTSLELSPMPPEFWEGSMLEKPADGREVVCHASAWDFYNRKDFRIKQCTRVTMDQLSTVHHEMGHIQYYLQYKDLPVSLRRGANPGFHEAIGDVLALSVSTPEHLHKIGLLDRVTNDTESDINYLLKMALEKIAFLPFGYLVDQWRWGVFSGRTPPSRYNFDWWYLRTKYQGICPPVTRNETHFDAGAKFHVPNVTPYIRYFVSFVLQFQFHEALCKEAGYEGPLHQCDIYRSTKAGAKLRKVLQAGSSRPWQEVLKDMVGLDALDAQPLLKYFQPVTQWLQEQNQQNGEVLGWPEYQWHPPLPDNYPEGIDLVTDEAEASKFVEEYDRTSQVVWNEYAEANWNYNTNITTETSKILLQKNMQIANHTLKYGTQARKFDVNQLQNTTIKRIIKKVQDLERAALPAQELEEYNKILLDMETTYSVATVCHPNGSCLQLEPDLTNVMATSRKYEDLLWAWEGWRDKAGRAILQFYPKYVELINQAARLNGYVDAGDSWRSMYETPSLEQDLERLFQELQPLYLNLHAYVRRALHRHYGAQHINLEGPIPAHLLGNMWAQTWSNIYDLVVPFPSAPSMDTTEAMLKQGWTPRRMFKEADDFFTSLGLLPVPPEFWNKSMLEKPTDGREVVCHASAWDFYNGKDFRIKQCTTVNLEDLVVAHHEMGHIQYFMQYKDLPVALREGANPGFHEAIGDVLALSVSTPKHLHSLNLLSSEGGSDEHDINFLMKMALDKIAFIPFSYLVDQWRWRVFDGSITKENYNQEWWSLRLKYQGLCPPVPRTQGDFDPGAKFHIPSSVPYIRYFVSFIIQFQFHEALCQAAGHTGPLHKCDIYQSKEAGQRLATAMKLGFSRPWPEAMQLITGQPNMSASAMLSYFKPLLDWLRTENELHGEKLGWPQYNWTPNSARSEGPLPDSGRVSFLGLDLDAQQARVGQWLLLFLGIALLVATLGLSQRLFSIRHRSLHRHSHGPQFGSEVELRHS
structure (smiles),measurement,setting,value
"CCN1CC2(COC)C(O)CC(OC)C34C5CC6(O)C(OC)C(O)C(O)(C5C6OC(=O)c5ccccc5)C(C(OC)C23)C14 (centres unmarked) [BAC, Benzoylaconitine]",p-Akt,p-Akt,activated
same,level of ACE in blood,ACE,decreased
same,oral median lethal dose (LD50),mice,"1,500 mg kg^−1"
same,level of ACE2 in blood,ACE2,did not change
same,p-eNOS^Ser1177,p-eNOS^Ser1177,activated
same,pKd,[1],4.96
same,level of Ang (1–7) in blood,Ang (1–7),significantly increased
same,anti-hypertensive effect (in words),"[2]; acute experiment, i.v. injection 0.6–6 mg kg^−1",observable anti-hypertensive effects
same,duration of anti-hypertensive effect,"[2]; i.v. injection, 0.6 mg kg^−1",at least 30 min
same,"lowering of SBP, DBP, and MAP","[2]; i.v. injection, lowest dose 0.6 mg kg^−1, 1–5 min",more than 20 mmHg
same,pKd,rhACE2,5.51
